Assay results: patent US20140113824A1, “BICYCLIC (THIO)CARBONYLAMIDINES” (BAYER INTELLECTUAL PROPERTY GMBH, priority 2011, published 2014)
Read-outs that look alike come from different tables or passages of the source.

Experiments:
Type in all cases: in vivo
[1] = tested on: green peach aphid (Myzus persicae); test: Myzus test (MYZUPE spray treatment); conditions: for pest or weed control at 500 g/ha: Myzus persicae, foliar, 144 h, read-out: effect in % (aphids killed)
Protocol: 2. Myzus Test (MYZUPE Spray Treatment)
(§1) Solvents: 78.0 parts by weight of acetone • • 1.5 parts by weight of dimethylformamide Emulsifier: 0.5 part by weight of alkylaryl polyglycol ether
(§2) To produce a suitable preparation of active compound, 1 part by weight of active compound is mixed with the stated amounts of solvent and emulsifier, and the concentrate is diluted with emulsifier-containing water to the desired concentration.
Disks of Chinese cabbage leaves (Brassica pekinensis) infested by all stages of the green peach aphid (Myzus persicae) are sprayed with an active compound preparation of the desired concentration.
After 6 days, the effect in % is determined. 100% means that all of the aphids have been killed; 0% means that none of the aphids have been killed.

[2] = tested on: larvae of the mustard beetle (Phaedon cochleariae); test: Phaedon test (PHAECO spray treatment); conditions: application rate 500 g/ha; spray on Chinese cabbage leaf disks; after 7 days
Protocol: 1. Phaedon Test (PHAECO Spray Treatment)
as §1, §2
Disks of Chinese cabbage leaves (Brassica pekinensis) are sprayed with an active compound preparation of the desired concentration and, after drying, populated with larvae of the mustard beetle (Phaedon cochleariae).
After 7 days, the effect in % is determined. 100% means that all beetle larvae have been killed; 0% means that none of the beetle larvae have been killed.

[3] = tested on: Lucilia cuprina larvae; test: Lucilia cuprina test (LUCICU); conditions: 100 ppm; treated horse meat; after 48 hours
Protocol: 5. Lucilia cuprina Test (LUCICU)
(§3) Solvent: dimethyl sulfoxide
(§4) To produce a suitable preparation of active compound, 10 mg of active compound are mixed with 0.5 ml of dimethyl sulfoxide, and the concentrate is diluted with water to the desired concentration.
Vessels containing horse meat treated with the active compound preparation of the desired concentration are populated with about 20 Lucilia cuprina larvae.
After 48 hours, the kill in % is determined 100% means that all larvae have been killed; 0% means that no larvae have been killed.

[4] = tested on: Cooperia curticei larvae; test: Cooperia curticei test (COOPCU); conditions: 100 ppm in Ringer solution; after 5 days
Protocol: 7. Cooperia curticei Test (COOPCU)
as §3
To produce a suitable preparation of active compound, 10 mg of active compound are mixed with 0.5 ml of dimethyl sulfoxide, and the concentrate is diluted with Ringer solution to the desired concentration. Vessels containing the active compound preparation of the desired concentration are populated with about 40 Cooperia curticei larvae.
After 5 days, the kill in % is determined. 100% means that all larvae have been killed; 0% means that no larvae have been killed.

[5] = tested on: adult Musca domestica; test: Musca domestica test (MUSCDO); conditions: 100 ppm; treated sponge; after 2 days
Protocol: 6. Musca domestica Test (MUSCDO)
as §3, §4
Vessels containing a sponge treated with the active compound formulation of the desired concentration are populated with adult Musca domestica.
After 2 days, the kill in % is determined. 100% means that all of the flies have been killed; 0% means that none of the flies have been killed.

[6] = tested on: adult fleas (Ctenocephalides felis); test: Ctenocephalides felis; oral (CTECFE); conditions: 100 ppm in citrated cattle blood, after 2 days
Protocol: 4. Ctenocephalides felis; Oral (CTECFE)
Solvents: 1 part by weight of dimethyl sulfoxide
To produce a suitable preparation of active compound, 10 mg of active compound are mixed with 0.5 ml of dimethyl sulfoxide. A portion of the concentrate is diluted with citrated cattle blood, and the desired concentration is prepared.
About 20 unfed adult fleas (Ctenocephalides felis) are placed into a chamber which is closed at the top and bottom with gauze. A metal cylinder whose bottom end is closed with parafilm is placed onto the chamber. The cylinder contains the blood/active compound preparation, which can be taken up by the fleas through the parafilm membrane.
After 2 days, the kill in % is determined 100% means that all of the fleas have been killed; 0% means that none of the fleas have been killed.

[7] = tested on: greenhouse red spider mite (Tetranychus urticae); test: Tetranychus test, OP-resistant (TETRUR spray treatment); conditions: application rate 100 g/ha; spray on infested bean leaf disks; after 6 days
Protocol: 3. Tetranychus Test, OP-Resistant (TETRUR Spray Treatment)
as §1, §2
Disks of bean leaves (Phaseolus vulgaris) which are infested by all stages of the greenhouse red spider mite (Tetranychus urticae) are sprayed with an active compound preparation of the desired concentration.
After 6 days, the effect in % is determined. 100% here means that all of the spider mites have been killed. 0% means that none of the spider mites have been killed.

[8] = application rate 500 g/ha, spray on infested Chinese cabbage leaf disks, after 6 days

## O=c1nc2n(Cc3ccc(C(F)(F)F)nc3)cccc-2o1 [Example I-1, 4-(6-Trifluoromethylpyridin-3-ylmethyl)oxazolo[4,5-b]pyridin-2(4H)-one]
[1]; [8]
  pest or weed control at 500 g/ha: 100%

## O=c1nc2n(Cc3cnc(Cl)c(Cl)c3)cccc-2o1 [Example I-2, 4-(5,6-Dichloropyridin-3-ylmethyl)oxazolo[4,5-b]pyridin-2(4H)-one]
[2]
  effect in % (beetle larvae killed): 100%
[1]; in Brassica rapa
  pest or weed control at 500 g/ha: 100%
[3]
  kill in % (larvae killed): 100%

## O=c1nc2n(Cc3ccc(Cl)nc3)cccc-2o1 [Example I-3, 4-(6-Chloropyridin-3-ylmethyl)oxazolo[4,5-b]pyridin-2(4H)-one]
[2]
  effect in % (beetle larvae killed): 100%
[1]; in Brassica rapa
  pest or weed control at 500 g/ha: 100%
[4]
  kill in % (larvae killed): 80%
[3]
  kill in % (larvae killed): 100%

## O=c1nc2n(Cc3cnc(Cl)c(F)c3)cccc-2o1 [Example I-4, 4-(6-Chloro-5-fluoropyridin-3-ylmethyl)oxazolo[4,5-b]pyridin-2(4H)-one]
[2]
  effect in % (beetle larvae killed): 100%
[1]; in Brassica rapa
  pest or weed control at 500 g/ha: 100%
[3]
  kill in % (larvae killed): 100%
[5]
  kill in % (flies killed): 80%

## Cc1cnc(Cn2cccc3oc(=O)nc2-3)cn1 [Example I-5, 4-(5-Methylpyrazin-2-ylmethyl)oxazolo[4,5-b]pyridin-2(4H)-one]
[1]; [8]
  pest or weed control at 500 g/ha: 100%

## O=c1nc2n(Cc3cnc(Cl)s3)cccc-2o1 [Example I-6, 4-(2-Chloro-1,3-thiazol-5-ylmethyl)oxazolo[4,5-b]pyridin-2(4H)-one]
[2]
  effect in % (beetle larvae killed): 100%
[1]; in Brassica rapa
  pest or weed control at 500 g/ha: 100%
[3]
  kill in % (larvae killed): 100%
[6]
  kill in % (fleas killed): 80%

## O=c1nc2n(Cc3ccc(F)nc3)cccc-2o1 [Example I-9, 4-(6-Fluoropyridin-3-ylmethyl)oxazolo[4,5-b]pyridin-2(4H)-one]
[1]; in Brassica rapa
  pest or weed control at 500 g/ha: 100%
[3]
  kill in % (larvae killed): 100%

## O=c1nc2n(Cc3ccc(Br)nc3)cccc-2o1 [Example I-10, 4-(6-Bromopyridin-3-ylmethyl)oxazolo[4,5-b]pyridin-2(4H)-one]
[2]
  effect in % (beetle larvae killed): 100%
[1]; in Brassica rapa
  pest or weed control at 500 g/ha: 100%

## O=c1nc2n(Cc3ccc(Cl)nc3)cc(Br)cc-2o1 [Example I-11, 6-Bromo-4-(6-chloropyridin-3-ylmethyl)oxazolo[4,5-b]pyridin-2(4H)-one]
[1]; in Brassica rapa
  pest or weed control at 500 g/ha: 100%

## O=C1N=C2C(CCCN2Cc2ccc(Cl)nc2)O1 (stereo not shown) [Example I-16, 4-(6-Chloropyridin-3-ylmethyl)-5,6,7,7a-tetrahydrooxazolo[4,5-b]-pyridin-2(4H)-one]
[2]
  effect in % (beetle larvae killed): 100%
[1]; in Brassica rapa
  pest or weed control at 500 g/ha: 100%
[7]
  effect in % (spider mites killed): 100%

## CC(=O)N(Cc1ccc(Cl)nc1)c1ncccc1OCc1ccc(Cl)nc1 [Example I-16a, 2-[(N-acetyl, N′-(6-chloropyridin-3-ylmethyl)amino)]-3-(6-chloropyridin-3-ylmethoxy)pyridine]
[7]
  effect in % (spider mites killed): 90%

## O=c1oc2cccnc2n1Cc1cnc(Cl)c(Cl)c1 [IV-2, 3-(5,6-dichloropyridin-3-ylmethyl)oxazolo[4,5-b]-2(3H)-one]
[1]; [8]
  effect in % (aphids killed): 100%

## O=c1oc2cccnc2n1Cc1ccc(C(F)(F)F)nc1 [IV-I, 3-(6-trifluoromethylpyridin-3-ylmethyl)oxazolo[4,5-b]-2(3H)-one]
[1]; [8]
  effect in % (aphids killed): 90%
